This is an account of results in patent publication US9062095B2, “Mutant double cyclized receptor peptides inhibiting β1-adrenoceptor antibodies” (JULIUS-MAXIMILIANS-UNIVERSTITAT-WURZBURG, priority 2007, dated 2015).

Positions of bridges follow the written chain, without caps; N, C: chain ends.

Holding throughout (set-up): species or system rat
The subject of experiment [1] is rats with antibody-induced immune-cardiomyopathy. The experiment in a line: in vivo therapy study: cardioprotective effect (echocardiography, hemodynamics, organ weights). An excerpt: FIG. 17.A is a diagram showing the time course (month 0 to 20) of the internal end-systolic and end-diastolic left ventricular diameters (LVES, LVED) of GST/β1-ECII-immunized un-treated (black circles) versus GST/β1-ECII-immunized animals treated with the indicated various cyclopeptides (see legend) as determined by echocardiography (echocardiographic system: Visual Sonics, Vevo 770 (version V2.2.3), equipped with a 15-17.5 MHz transducer), whereby LVES/LVED is left ventricular end-systolic diameter/left ventricular end-diastolic diameter.
FIG. 17.B is a similar diagram showing the time course (month 0 to 20) of the internal end-systolic and end-diastolic left ventricular diameters (LVES, LVED) of GST/β1-ECII-immunized untreated (black circles) versus GST/β1-ECII-immunized animals, treated with different concentrations of the 18AA Cys/Ser cyclopeptide mutant (see legend).
FIG. 19A is a diagram depicting the time course (month 0 to 20) of the “Cardiac index” (CI) in ml/min/g (body weight) as determined by echocardiography (echocardiographic system see legend to FIG. 17a.).
(§1) The latter doses were almost equally efficient in terms of both, neutralization of circulating receptor antibodies (FIGS. 16b and c), and reversal of antibody-induced cardiomyopathic features (FIGS. 17b, 19b, 20, and 21b).

For experiment [2], the system named is beta1-ECII receptor antibody-titers. The experiment in a line: in vivo therapy study cyc22AA versus cyc18AA Cys/Ser in rats immunized over 8 months: antibody-titers. The settings on record: injections every 4 weeks, start at month 8; mean ±SEM (FIG. 28A). The source says:
FIGS. 28A and B depict the in vivo blocking (=neutralization) capacity of two cysteine-containing 18AA or 22AA cyclopeptide-mutants of the second extracellular loop (ECII) of the human beta1-adrenergic receptor upon therapeutic injection of the different constructs into rats regularly immunized since 8 months (first=basic immunization followed by 7 antigen-boosts every 4 weeks). The effects of four to five subsequent cyclopeptide-injections every 4 weeks are shown. FIG. 28A depicts the mean values±SEM of each of the treated groups of immunized beta1-ECII-antibody positive cardiomyopathic rats (animal number per group is given in the legend). […] The remaining receptor antibody-titers after each injection in % of the antibody-titers at start therapy (month 8) are depicted (columns). Error bars indicate ±SEM. Numbers in columns indicate the number of (subsequent) monthly injection.
FIG. 28B depicts the time course of antibody-titers after 4 subsequent cyclopeptide-injections, determined before and 20-22 hours after application of the indicated constructs. Values are given in percent of increase or decrease in the respective antibody-titers after each cyclopeptide-injection compared with the antibody-titer determined at start of therapy (month 8). […]

Experiment [3] has as its system anti-beta1-receptor antibody-titers. Put plainly: in vivo therapy study in long term immunized cardiomyopathic rats: antibody-titers by ELISA. The conditions noted are these: for in vivo blocking capacity after the first i.v. injection: sera 18-20 hours after injection (FIGS. 14 and 15). As to the method:
FIG. 16A is a diagram resuming the in vivo blocking effect of both 25AA and 18AA cyclopeptide mutants with a Gln closure site, determined after a total of nine intravenous (i.v.) in-jections of 1.0 mg/kg body weight (Bw) of the indicated peptides into immunized antibody-positive rats. Sera were drawn before and 18-20 hours after i.v. injection of the various peptides every 4 weeks (abscissa: time in months of treatment) and assayed for reactivity by ELISA using the 3 Cys-containing linear 25AA Cys/Cys-peptide as an antigen.
FIG. 16B is a diagram resuming the in vivo blocking effect of various concentrations of 18AA cyclopeptide mutants with a Gln closure site, determined after a total of nine intra-venous (i.v.) injections of 0.25, 1.0, 2.0, and 4.0 mg/kg body weight (Bw) into immunized antibody-positive rats, irrespective of the cyclopeptide “responder-state” of individual animals. Sera were drawn before and 18-20 hours after i.v. injection of the various peptides every 4 weeks (abscissa: time in months), and assayed for reactivity by ELISA using the 3 Cys-containing linear 25AA Cys/Cys-peptide as an antigen.
Sera were drawn as described above and assayed for reactivity by ELISA using the 3 Cys-containing linear 25AA Cys/Cys-peptide as an antigen.
Moreover, the in vivo blocking effects of therapeutically used 25AA and 18AA Cys/Ser cyclo-peptide mutants, the 18AA Ser/Cys mutant (Gln-)cyclopeptide, and a mutated linear 18AA Cys/Ser peptide were assessed after a first intravenous (i.v.) dose (i.e., 1.0 mg/kg body weight (Bw)) of each construct injected into long term immunized anti-beta1-ECII antibody-positive rats, yet presenting a cardiomyopathic phenotype (after nine months of 1× monthly immunization with the beta1-ECII/GST antigen; FIGS. 14-16 and 17). Sera were drawn 18-20 hours after the first i.v. injection of the various constructions and assayed for reactivity by ELISA using the 3 Cys-containing linear 25AA Cys/Cys-peptide as an antigen.
as §1
In order to generate anti-β1-receptor antibodies the animals were immunized with a fusion protein containing bacterial glutathione-S-transferase and the sequence of the second extra-cellular loop of the human β1-adrenergic receptor (GST/β1-ECII). Before treatment of the animals with mutated cyclopeptides according to the present invention, progressive dilated immune cardiomyopathy is observed after 6 to 8 months of regular immunization every four weeks (FIG. 17). All of the immunized animals developed high titers of stimulatory anti-β1-ECII antibodies. The specific anti-β1-ECII titer reached a maximum between 6 and 8 months of continuously boosting the animals every 4 weeks, whereas NaCl-injected control animals developed no specific receptor antibodies (FIG. 18).
Such immunized animals were used for the application of mutant cyclopeptides according to the present invention. The in-vivo blocking effect of both 25AA and 18AA Cys/Ser mutant cyclopeptides (with a Gln closure site) were determined after a first intravenous (i.v.) injection of 1.0 mg/kg body weight (Bw) (for 18AA Cys/Ser cyclopeptides also 0.25 mg/kg/Bw) into immunized antibody-positive rats. Sera were drawn 18-20 hours after i.v. injection of the different peptides and assayed for reactivity by ELISA using the 3 Cys-containing linear 25AA Cys/Cys-peptide as an antigen.

Where [4] appears, read: 0.25 mg/kg Bw, repeated injections every 4 weeks.
Setting [5] is: 4.0 mg/kg body weight, repeated injections every 4 weeks.

As for “Cyclo-Ala-Asp-Glu-Ala-Arg-Arg-Cys-Tyr-Asn-Asp-Pro-Lys-Cys-Ser-Asp-Phe-Val-Gln (cyclo(ADEARRCYNDPKCSDFVQ); disulfide 7-13; SMILES CC(C)[C@@H]1NC(=O)[C@H](Cc2ccccc2)NC(=O)[C@H](CC(=O)O)NC(=O)[C@H](CO)NC(=O)[C@@H]2CSSC[C@H](NC(=O)[C@H](CCCNC(=N)N)NC(=O)[C@H](CCCNC(=N)N)NC(=O)[C@H](C)NC(=O)[C@H](CCC(=O)O)NC(=O)[C@H](CC(=O)O)NC(=O)[C@H](C)NC(=O)[C@H](CCC(N)=O)NC1=O)C(=O)N[C@@H](Cc1ccc(O)cc1)C(=O)N[C@@H](CC(N)=O)C(=O)N[C@@H](CC(=O)O)C(=O)N1CCC[C@H]1C(=O)N[C@@H](CCCCN)C(=O)N2) [18AA Cys/Ser mutant (Gln-)cyclopeptide, disulphide bond Cys7-Cys13, ring closure Ala1-Gln18]”, the “achieved cardioprotective effect compared with 1.0 or 2.0 mg/kg” value in experiment [1] (setting [4]) was “clearly less efficient”. The “cardioprotective effects compared with 1.0 or 2.0 mg/kg” value in experiment [1] (setting [5]) was “did not result in higher efficiency”. In addition, the “reversal of antibody-induced cardiomyopathic features” value in experiment [1] (1.0 or 2.0 mg/kg Bw (FIGS. 17B, 19B, 20, 21B)) is reported as “best cardioprotection”. The “antibody-titer remaining after 4 injections in percent of the titer at start of therapy” value in experiment [2] was determined as 76.0±23.0%. Moreover, the “number of responders (after 7 injections remaining antibody level equal or inferior to 80% of titer at start of therapy)” value is 3/4 in experiment [3] (0.25 mg/kg Bw (FIG. 16C)), 16/20 in experiment [3] (1.0 mg/kg Bw (FIG. 16C)), 2/5 in experiment [3] (2.0 mg/kg Bw (FIG. 16C)) and 6/9 in experiment [3] (4.0 mg/kg Bw (FIG. 16C)). Further, in experiment [3] (setting [4]), the “achieved decrease in circulating receptor-antibodies compared with 1.0 or 2.0 mg/kg” value is listed as “clearly less efficient”. Besides, the “in vivo blocking capacity after the first i.v. injection” value in experiment [3] (0.25 mg/kg body weight) was “no relevant decrease in receptor-antibodies”; in experiment [3] (1 mg/kg Bw, listed as 18AA Cys/Ser cyclopeptide mutant), “largely superior to that of the linear 18AA Cys/Ser peptide mutant”; in experiment [3] (1 mg/kg Bw, listed as 18AA Cys/Ser cyclopeptide mutants), “higher in vivo blocking capacity”. The “initial transient increase in antibody-titers” value is reported as “did not occur” in experiment [3] (1.0 mg/kg Bw (FIGS. 16a and b)); “did not occur” in experiment [3] (2.0 mg/kg Bw); “transient increase in antibody-titers” in experiment [3] (4.0 mg/kg Bw (high dose)). In addition, the “absolute decrease in antibody-titers after 9 months of treatment, of the titer at start of therapy” value in experiment [3] (1.0 mg/kg i.v. every 4 weeks) was −59±14%; in experiment [3] (2.0 mg/kg i.v. every 4 weeks), −59±12%; in experiment [3] (4.0 mg/kg i.v. every 4 weeks), −39±14%. For the same substance, the “antibody scavenging capacity compared with 1.0 or 2.0 mg/kg” value in experiment [3] (setting [5]) is “did not result in higher efficiency”.
